Results reported in PMC5218480 (PLoS ONE, 2017).

System: MV-4-11 cells
Experiment: Gene expression microarray analysis (Affymetrix PrimeView) and GSEA
Format: cell-based, human
Parameters: RFU PODN (11730768_x_at) / Fold change /veh PODN (11730768_x_at) / RFU LINC00158 (11744669_a_at) / Fold change /veh LINC00158 (11744669_a_at) / RFU DUSP10 (11751237_a_at) / Fold change /veh DUSP10 (11751237_a_at) / RFU ID3 (11757404_x_at) / Fold change /veh ID3 (11757404_x_at) / RFU PLEKHG5 (11737974_s_at) / Fold change /veh PLEKHG5 (11737974_s_at) / RFU LRRC4B (11730491_at) / Fold change /veh LRRC4B (11730491_at) / RFU GIMAP4 (11747438_a_at) / Fold change /veh GIMAP4 (11747438_a_at) / RFU KRT8 (11758183_x_at) / Fold change /veh KRT8 (11758183_x_at) / RFU CNN1 (11734310_a_at) / Fold change /veh CNN1 (11734310_a_at) / RFU VPS37D (11726825_at) / Fold change /veh VPS37D (11726825_at) / RFU C10orf10 (11716522_x_at) / Fold change /veh C10orf10 (11716522_x_at) / RFU KIR2DL2 /// KIR2DL4 /// KIR2DL5A /// KIR2DL5B /// KIR2DS1 /// KIR2DS2 /// KIR2DS3 /// KIR2DS4 /// KIR3DL3 /// KIR3DL3 /// KIR3DS1 (11738374_at) / Fold change /veh KIR2DL2 /// KIR2DL4 /// KIR2DL5A /// KIR2DL5B /// KIR2DS1 /// KIR2DS2 /// KIR2DS3 /// KIR2DS4 /// KIR3DL3 /// KIR3DL3 /// KIR3DS1 (11738374_at) / RFU C1QL1 (11718748_at) / Fold change /veh C1QL1 (11718748_at) / RFU TMPRSS4 (11747572_a_at) / Fold change /veh TMPRSS4 (11747572_a_at) / RFU HAMP (11756126_x_at) / Fold change /veh HAMP (11756126_x_at) / RFU RNFT2 (11725882_a_at) / Fold change /veh RNFT2 (11725882_a_at) / RFU NR4A2 (11747474_a_at) / Fold change /veh NR4A2 (11747474_a_at) / RFU ABCC12 (11746883_a_at) / Fold change /veh ABCC12 (11746883_a_at) / RFU TMEM136 (11760407_x_at) / Fold change /veh TMEM136 (11760407_x_at) / RFU CLDN22 /// WWC2 (11732394_at) / Fold change /veh CLDN22 /// WWC2 (11732394_at) / RFU HLA-DPB1 (11760878_x_at) / Fold change /veh HLA-DPB1 (11760878_x_at) / RFU SPINT1 (11716480_a_at) / Fold change /veh SPINT1 (11716480_a_at) / RFU GAP43 (11754022_s_at) / Fold change /veh GAP43 (11754022_s_at) / RFU A4GNT (11735810_at) / Fold change /veh A4GNT (11735810_at) / RFU PRB3 (11715151_x_at) / Fold change /veh PRB3 (11715151_x_at) / RFU TUBB4B (11761932_at) / Fold change /veh TUBB4B (11761932_at) / RFU CAPN14 (11732068_a_at) / Fold change /veh CAPN14 (11732068_a_at) / RFU TMCC2 (11721928_a_at) / Fold change /veh TMCC2 (11721928_a_at) / RFU IRGQ (11745062_a_at) / Fold change /veh IRGQ (11745062_a_at) / RFU FAM174B (11720279_a_at) / Fold change /veh FAM174B (11720279_a_at) / RFU TMPRSS4 (11748680_a_at) / Fold change /veh TMPRSS4 (11748680_a_at) / RFU FAM212B (11763350_a_at) / Fold change /veh FAM212B (11763350_a_at) / RFU PLEKHG5 (11743358_a_at) / Fold change /veh PLEKHG5 (11743358_a_at) / RFU ZSCAN30 (11745921_a_at) / Fold change /veh ZSCAN30 (11745921_a_at) / RFU CMKLR1 (11741424_a_at) / Fold change /veh CMKLR1 (11741424_a_at) / RFU LOC101060620 /// MAPK8IP1 (11723275_at) / Fold change /veh LOC101060620 /// MAPK8IP1 (11723275_at) / RFU SPTSSB (11747773_x_at) / Fold change /veh SPTSSB (11747773_x_at) / RFU PRSS12 (11739890_at) / Fold change /veh PRSS12 (11739890_at) / RFU BIN1 (11741810_x_at) / Fold change /veh BIN1 (11741810_x_at) / RFU WNT11 (11732464_a_at) / Fold change /veh WNT11 (11732464_a_at) / RFU C10orf10 (11716521_a_at) / Fold change /veh C10orf10 (11716521_a_at) / RFU C5orf56 (11738089_at) / Fold change /veh C5orf56 (11738089_at) / RFU CYB561 (11721691_x_at) / Fold change /veh CYB561 (11721691_x_at) / RFU ANKRD19P (11752326_a_at) / Fold change /veh ANKRD19P (11752326_a_at) / RFU OR2T12 /// OR2T33 /// OR2T8 (11738714_s_at) / Fold change /veh OR2T12 /// OR2T33 /// OR2T8 (11738714_s_at) / RFU VCAN (11748164_a_at) / Fold change /veh VCAN (11748164_a_at) / RFU JSRP1 (11732532_at) / Fold change /veh JSRP1 (11732532_at) / RFU KRTAP10-11 (11738290_x_at) / Fold change /veh KRTAP10-11 (11738290_x_at) / RFU MYO3A (11730013_a_at) / Fold change /veh MYO3A (11730013_a_at) / RFU EBF3 (11725865_a_at) / Fold change /veh EBF3 (11725865_a_at) / RFU CAMK2N1 (11719241_x_at) / Fold change /veh CAMK2N1 (11719241_x_at) / RFU C5orf56 (11738088_a_at) / Fold change /veh C5orf56 (11738088_a_at) / RFU OLFML3 (11715873_a_at) / Fold change /veh OLFML3 (11715873_a_at) / RFU LOC100653217 /// NTM (11731650_a_at) / Fold change /veh LOC100653217 /// NTM (11731650_a_at) / RFU MAPK11 (11762145_a_at) / Fold change /veh MAPK11 (11762145_a_at) / RFU FIZ1 (11724087_x_at) / Fold change /veh FIZ1 (11724087_x_at) / RFU OASL (11726364_x_at) / Fold change /veh OASL (11726364_x_at) / RFU SOX15 (11748057_x_at) / Fold change /veh SOX15 (11748057_x_at) / RFU CD79A (11719716_a_at) / Fold change /veh CD79A (11719716_a_at) / RFU HIST1H1D (11736915_at) / Fold change /veh HIST1H1D (11736915_at) / RFU CASKIN2 (11723855_a_at) / Fold change /veh CASKIN2 (11723855_a_at) / RFU LOC730098 (11760151_x_at) / Fold change /veh LOC730098 (11760151_x_at) / RFU OR4N2 (11742367_at) / Fold change /veh OR4N2 (11742367_at) / RFU PRRT2 (11749266_a_at) / Fold change /veh PRRT2 (11749266_a_at) / RFU SNX32 (11753110_a_at) / Fold change /veh SNX32 (11753110_a_at) / RFU CDHR5 (11726645_a_at) / Fold change /veh CDHR5 (11726645_a_at) / RFU RCAN1 (11760418_a_at) / Fold change /veh RCAN1 (11760418_a_at) / RFU FAM167A (11723789_a_at) / Fold change /veh FAM167A (11723789_a_at) / RFU FAM26E (11764081_at) / Fold change /veh FAM26E (11764081_at) / RFU ISYNA1 (11749810_s_at) / Fold change /veh ISYNA1 (11749810_s_at) / RFU ACY1 (11761880_at) / Fold change /veh ACY1 (11761880_at) / RFU 11764098_at / Fold change /veh 11764098_at / RFU SAMD14 (11745864_x_at) / Fold change /veh SAMD14 (11745864_x_at) / RFU NPB (11741838_a_at) / Fold change /veh NPB (11741838_a_at) / RFU TMPRSS6 (11731388_a_at) / Fold change /veh TMPRSS6 (11731388_a_at) / RFU KRTAP10-2 (11738614_at) / Fold change /veh KRTAP10-2 (11738614_at) / RFU ARHGAP8 /// PRR5-ARHGAP8 (11727945_x_at) / Fold change /veh ARHGAP8 /// PRR5-ARHGAP8 (11727945_x_at) / RFU KRTAP5-7 /// NADSYN1 (11734609_at) / Fold change /veh KRTAP5-7 /// NADSYN1 (11734609_at) / RFU RASL12 (11751679_a_at) / Fold change /veh RASL12 (11751679_a_at) / RFU CDKN2B (11736163_a_at) / Fold change /veh CDKN2B (11736163_a_at) / RFU PRF1 (11729649_at) / Fold change /veh PRF1 (11729649_at) / RFU, ZNF638 /// ZNF638-IT1 / Fold change vs veh, ZNF638 /// ZNF638-IT1 / RFU, PANK3 / Fold change vs veh, PANK3 / RFU, SH3YL1 / Fold change vs veh, SH3YL1 / RFU, ZEB2 / Fold change vs veh, ZEB2 / RFU, NRIP1 / Fold change vs veh, NRIP1 / RFU, PTTG1IP / Fold change vs veh, PTTG1IP / RFU, CAPN2 / Fold change vs veh, CAPN2 / RFU, MED14 / Fold change vs veh, MED14 / RFU, SNORA58 / Fold change vs veh, SNORA58 / RFU, C1orf63 / Fold change vs veh, C1orf63 / RFU, LRRFIP1 / Fold change vs veh, LRRFIP1 / RFU, NDUFAF7 / Fold change vs veh, NDUFAF7 / RFU, SLC12A2 / Fold change vs veh, SLC12A2 / RFU, IBTK / Fold change vs veh, IBTK / RFU, ESF1 / Fold change vs veh, ESF1 / Fold change vs veh, TMEM50B / RFU, TAOK1 / Fold change vs veh, TAOK1 / RFU, ACBD3 / Fold change vs veh, ACBD3 / RFU, TMA16 / Fold change vs veh, TMA16 / RFU, RWDD3 / Fold change vs veh, RWDD3 / RFU, BCAT1 / Fold change vs veh, BCAT1 / RFU, EDEM3 / Fold change vs veh, EDEM3 / RFU, TMEM33 / Fold change vs veh, TMEM33 / RFU, WDR75 / Fold change vs veh, WDR75 / RFU, AHCTF1 / Fold change vs veh, AHCTF1 / RFU, TFRC / Fold change vs veh, TFRC / RFU, ZDHHC17 / Fold change vs veh, ZDHHC17 / RFU, NOM1 / Fold change vs veh, NOM1 / RFU, ARL8B / Fold change vs veh, ARL8B / RFU, ZBTB11 / Fold change vs veh, ZBTB11 / RFU, TAMM41 / Fold change vs veh, TAMM41 / RFU, KIAA1704 /// LOC100996395 / Fold change vs veh, KIAA1704 /// LOC100996395 / RFU, ING1 / Fold change vs veh, ING1 / RFU, TRMT61B / Fold change vs veh, TRMT61B / RFU, FUBP3 / Fold change vs veh, FUBP3 / RFU, TP53 / Fold change vs veh, TP53 / RFU, TNKS2 / Fold change vs veh, TNKS2 / RFU, ZFP14 / Fold change vs veh, ZFP14 / RFU, ACTR2 / Fold change vs veh, ACTR2 / RFU, PPP3R1 / Fold change vs veh, PPP3R1 / RFU, PIK3R1 / Fold change vs veh, PIK3R1 / RFU, HNRNPA1 / Fold change vs veh, HNRNPA1 / RFU, RNF170 / Fold change vs veh, RNF170 / RFU, ZNF28 / Fold change vs veh, ZNF28 / RFU, RNGTT / Fold change vs veh, RNGTT / RFU, OGT / Fold change vs veh, OGT / RFU, BRD1 / Fold change vs veh, BRD1 / RFU, MARS / Fold change vs veh, MARS / RFU, ZNF655 / Fold change vs veh, ZNF655 / RFU, FAHD1 / Fold change vs veh, FAHD1 / RFU, BDP1 / Fold change vs veh, BDP1 / RFU, LRRCC1 / Fold change vs veh, LRRCC1 / RFU, ARID1A / Fold change vs veh, ARID1A / RFU, ZNF146 / Fold change vs veh, ZNF146 / RFU, ZNF330 / Fold change vs veh, ZNF330 / RFU, GPN3 / Fold change vs veh, GPN3 / RFU, C9orf123 / Fold change vs veh, C9orf123 / RFU, N4BP2L2 / Fold change vs veh, N4BP2L2 / RFU, ARFIP1 / Fold change vs veh, ARFIP1 / RFU, FAM179B / Fold change vs veh, FAM179B / RFU, BCL10 / Fold change vs veh, BCL10 / RFU, UHRF1BP1L / Fold change vs veh, UHRF1BP1L / RFU, BET1 / Fold change vs veh, BET1 / RFU, CNOT2 / Fold change vs veh, CNOT2 / RFU, ZNF268 / Fold change vs veh, ZNF268 / Fold change vs veh, ZNF507 / RFU, DGCR2 / Fold change vs veh, DGCR2 / RFU, WDSUB1 / Fold change vs veh, WDSUB1 / Fold change vs veh, HSP90B1 /// MIR3652 / RFU, ADSS / Fold change vs veh, ADSS / RFU, GK / Fold change vs veh, GK / RFU, ZNF148 / Fold change vs veh, ZNF148 / RFU, TAF9 / Fold change vs veh, TAF9 / RFU, SLC1A5 / Fold change vs veh, SLC1A5 / RFU, SLMO2 / Fold change vs veh, SLMO2 / RFU, ABCC4 / Fold change vs veh, ABCC4 / RFU, LOC101060439 /// RAP1B / Fold change vs veh, LOC101060439 /// RAP1B / RFU, RFX7 / Fold change vs veh, RFX7 / RFU, GTPBP10 / Fold change vs veh, GTPBP10 / RFU, CNEP1R1 / Fold change vs veh, CNEP1R1 / RFU, BIVM-ERCC5 /// ERCC5 / Fold change vs veh, BIVM-ERCC5 /// ERCC5 / RFU, ILF3 / Fold change vs veh, ILF3 / RFU 11762660_at / Fold change /veh 11762660_at / RFU VCAN (11757783_s_at) / Fold change /veh VCAN (11757783_s_at) / RFU DDX43 (11728927_at) / Fold change /veh DDX43 (11728927_at) / RFU KRT8 (11758188_x_at) / Fold change /veh KRT8 (11758188_x_at) / RFU NKD1 (11759106_at) / Fold change /veh NKD1 (11759106_at) / RFU SRD5A1 (11742802_a_at) / Fold change /veh SRD5A1 (11742802_a_at) / RFU TPSAB1 /// TPSB2 (11721975_s_at) / Fold change /veh TPSAB1 /// TPSB2 (11721975_s_at) / RFU GSTM3 (11746129_a_at) / Fold change /veh GSTM3 (11746129_a_at) / RFU IL23R (11737362_x_at) / Fold change /veh IL23R (11737362_x_at) / RFU TMEM51 (11727254_a_at) / Fold change /veh TMEM51 (11727254_a_at) / RFU PIWIL2 (11732686_x_at) / Fold change /veh PIWIL2 (11732686_x_at) / RFU ORM1 (11744905_x_at) / Fold change /veh ORM1 (11744905_x_at) / RFU CCDC152 (11743942_at) / Fold change /veh CCDC152 (11743942_at) / RFU ECM1 (11717891_a_at) / Fold change /veh ECM1 (11717891_a_at) / RFU IL23R (11748794_a_at) / Fold change /veh IL23R (11748794_a_at) / RFU TNFAIP8L3 (11732012_x_at) / Fold change /veh TNFAIP8L3 (11732012_x_at) / RFU MBOAT4 (11741988_at) / Fold change /veh MBOAT4 (11741988_at) / RFU 11764193_at / Fold change /veh 11764193_at / RFU TMEM53 (11763286_at) / Fold change /veh TMEM53 (11763286_at) / RFU MAGEB2 (11727129_at) / Fold change /veh MAGEB2 (11727129_at) / RFU TMEM200A (11744735_a_at) / Fold change /veh TMEM200A (11744735_a_at) / RFU CCDC152 (11751479_a_at) / Fold change /veh CCDC152 (11751479_a_at) / RFU FAM211A (11726209_a_at) / Fold change /veh FAM211A (11726209_a_at) / RFU RGS16 (11746705_a_at) / Fold change /veh RGS16 (11746705_a_at) / RFU VCAN (11755009_s_at) / Fold change /veh VCAN (11755009_s_at) / RFU RHOB (11743442_s_at) / Fold change /veh RHOB (11743442_s_at) / RFU RGS16 (11720943_a_at) / Fold change /veh RGS16 (11720943_a_at) / RFU RGS16 (11720944_at) / Fold change /veh RGS16 (11720944_at) / RFU, VPS4B / Fold change vs veh, VPS4B / RFU, CREB1 / Fold change vs veh, CREB1 / RFU, DNAJC13 / Fold change vs veh, DNAJC13 / RFU, GNAQ / Fold change vs veh, GNAQ / RFU, CDK5R1 / Fold change vs veh, CDK5R1 / RFU, ZRANB3 / Fold change vs veh, ZRANB3 / RFU, CUL4A / Fold change vs veh, CUL4A / RFU, CCNY / Fold change vs veh, CCNY / RFU, UFL1 / Fold change vs veh, UFL1 / RFU, COG3 / Fold change vs veh, COG3 / RFU, DIAPH2 / Fold change vs veh, DIAPH2 / RFU, SKA2 / Fold change vs veh, SKA2 / RFU, AFF3 / Fold change vs veh, AFF3 / RFU, LMF1 / Fold change vs veh, LMF1 / RFU, IPO11 / Fold change vs veh, IPO11 / RFU, DFFB / Fold change vs veh, DFFB / RFU, FOXP1 / Fold change vs veh, FOXP1 / RFU, CARD8 / Fold change vs veh, CARD8 / RFU, STRN3 / Fold change vs veh, STRN3 / RFU, ADK / Fold change vs veh, ADK / RFU, RASSF2 / Fold change vs veh, RASSF2 / RFU, WIPF1 / Fold change vs veh, WIPF1 / RFU, LARP1B / Fold change vs veh, LARP1B / RFU, RASA1 / Fold change vs veh, RASA1 / RFU, RB1 / Fold change vs veh, RB1 / RFU, PPFIA1 / Fold change vs veh, PPFIA1 / RFU, MAT2A / Fold change vs veh, MAT2A / RFU, CCT5 / Fold change vs veh, CCT5 / RFU, WDR92 / Fold change vs veh, WDR92 / RFU, CUX1 / Fold change vs veh, CUX1 / RFU, TTC7A / Fold change vs veh, TTC7A / RFU, TMEM135 / Fold change vs veh, TMEM135 / RFU, DEPTOR / Fold change vs veh, DEPTOR / RFU, CPM / Fold change vs veh, CPM / RFU, DNAJB6 / Fold change vs veh, DNAJB6 / RFU, CACNA2D3 / Fold change vs veh, CACNA2D3 / RFU, DTX4 / Fold change vs veh, DTX4 / RFU, TFCP2 / Fold change vs veh, TFCP2 / RFU, GMCL1 /// GMCL1P1 / Fold change vs veh, GMCL1 /// GMCL1P1 / RFU, AEBP2 / Fold change vs veh, AEBP2 / RFU, SNHG1 /// SNORD22 /// SNORD25 /// SNORD26 /// SNORD27 /// SNORD28 /// SNORD29 /// SNORD31 / Fold change vs veh, SNHG1 /// SNORD22 /// SNORD25 /// SNORD26 /// SNORD27 /// SNORD28 /// SNORD29 /// SNORD31 / Fold change (Aza/veh), C12orf56 (ProbeSet 11735607_a_at) / Fold change (ACY-1035/veh), C12orf56 (ProbeSet 11735607_a_at) / Fold change (Aza/veh), FGFR1OP (ProbeSet 11751329_s_at) / Fold change (ACY-1035/veh), FGFR1OP (ProbeSet 11751329_s_at) / Fold change (Aza/veh), VPS36 (ProbeSet 11739960_a_at) / Fold change (ACY-1035/veh), VPS36 (ProbeSet 11739960_a_at) / RFU SYPL1 (11715823_x_at) / Fold change /veh SYPL1 (11715823_x_at) / RFU IGFBP7 (11715501_s_at) / Fold change /veh IGFBP7 (11715501_s_at) / RFU REEP3 (11722064_at) / Fold change /veh REEP3 (11722064_at) / RFU IGLL1 (11728026_x_at) / Fold change /veh IGLL1 (11728026_x_at): dose or concentration left out as unconfirmed
Settings: MV-4-11 cells, 48 hours

`Nc1ncn([C@@H]2O[C@H](CO)[C@@H](O)[C@H]2O)c(=O)n1` [azacitidine] was tested, and the “Fold change /veh CD79A (11719716_a_at)” value was 0.94.
